Results as given in patent US9096544B2, “Therapeutic compounds” (Wayne State University, priority 2009, dated 2015).

Columns and labels:
[1] = Test G: effect on body weight of repeated escalating dosing (toxicity, MTD); type: in vivo; conditions: IV once a day for 7 days, 20 mg/kg increased by 25% each dose; two female mice per group
Protocol: Mice were treated with escalating doses of either compound 16 or 3-Cl-AHPC to establish the difference in toxicity (MTD) between these compounds as measured by decreased body weight (FIG. 8). Two groups of mice, each consisting of two female ICR-SCIDS mice, were injected IV with either compound 16 or 3-Cl-AHPC once a day for 7 days. The initial IV injection of 20 mg/kg for each compound was increased by 25% for each ensuing dose. Body weights were measured on each of the seven days with the final body weights determined 48 hours post final dose. […] The final weight for this mouse was recorded 2 hours after death.

AsPc-1 cells = assay: Test I: apoptosis of AsPc-1 pancreatic cancer cells (Annexin V-FITC/PI); type: cell-based; conditions: 1 μM, 72 h
Protocol: Pancreatic cancer cell lines (COLO357, PANC-1, Capan-2, AsPc-1 cells and MiaPaCa-2 cells obtained from American Type Culture Collection; ATCC, Rockville, Md.) were treated with 1 μM 3-Cl-AHPC and compound 16 for various times. Apoptosis in cells were analyzed by flow cytometry using Annexin V-FITC binding together with propidium iodide (PI) staining (Annexin V-FITC apoptosis Detection Kit 1, BD Biosciences, San Diego, Calif.). Data acquisition was done on a FACS Calibur flow cytometer (BD) and analyzed with CellQuest software (BD Biosciences). 3-Cl-AHPC and compound 16 mediated inhibition of cell growth were determined by 3-(4,5-dimethylthiazol-2-yl)-2,5-diphenyltetrazolium bromide (MTT) assay. The cells were seeded on 96-well plates at a density of 4×10^4 cells/well in a volume of 200 μl culture medium. 1 μM AHP3 and 3-Cl-AHPC in DMSO (final concentration 0.1%) were added to the cells for various times. […] After discarding the medium, MTT precipitates were solubilized with 200 μl DMSO and the plates read on a BioTeK Synergy HT (BioTeK Instrument Inc., Vermont) at an absorbance 570 nm. […] The spheroids were stained with acridine orange/ethidium bromide staining and immediately visualized and photographed with fluorescence microscope (OLYMPUS CKX41). […] Then spheroids were visualized and photographed with a fluorescence microscope.

TF(v-SRC) cells = assay: Test E: inhibition of TF(v-SRC) cell growth in SCID mice (systemic model); type: in vivo; conditions: 20 mg/kg intravenously every other day, 15 doses
Protocol: (§1) FIG. 7 illustrates compound 16 inhibited TF(v-SRC) proliferation and growth in SCID mice. NOD SCID mice were randomized into two groups of eight. Each mouse was injected with 1×10^7TF(v-SRC) cells and 24 h later mice were either treated intravenously with compound 16 (20 mg/kg) or vehicle on a Monday, Wednesday and Friday schedule for five weeks. Mice were monitored for toxicity and survival. A) Survival of TF(vSRC) inoculated mice treated with compound 16, and B) absence of weight loss in compound 16 treated SCID mice. C) compound 16 inhibited palpable TF(v-SRC) growth in SCID mice. TF(v-SRC) cells were grown subcutaneously in a maintenance SCID mouse. The tumor was harvested and approximately 20 mg of tumor was subcutaneously injected utilizing a trochar into each flank of a SCID mouse. The tumors were then allowed to reach a size of 100 mg. The mice were randomized into three groups of 8 mice. Groups were treated either intravenously or subcutaneously at a distant site from the tumor with 20 mg/kg of compound 16 on a Monday, Wednesday and Friday schedule for 12 injections (4 weeks). Control mice were treated intravenously with vehicle.
Non-obese diabetic-severe combined immunodeficiency (NOD-SCID) and ICR-SCID mice were obtained from Jackson Laboratories (Bar Harbor, Me.) and Taconic Farms (Germantown, N.Y.), respectively. A) FFMA-AML and TF(v-SRC) systemic models: NOD-SCID and ICR-SCID mice (4 to 5 weeks old) were injected with either FFMA-AML or TF(v-SRC) cells intravenously. Treatment with either vehicle, 3-Cl-AHPC or compound 16 (the compound of Example 1) was instituted the following day. Once symptoms such as diarrhea, dehydration, weight loss, ascites, paralysis or general weakness became evident, mice were euthanized. B) TF(v-SRC) subcutaneous mouse model. ICR-SCID mice were trocared subcutaneously bilaterally with TF(v-SRC) tumor fragments. Animals with equal tumor weights determined as described previously (Zhang Y. et al., Blood. 2002; 100:2917-2925) were assigned to three experimental arms: 1) control (vehicle treated), 2) subcutaneously treated with compound 16, and 3) intravenously treated with compound 16. The percent increase in the host life-span (% ILS) of the FFMA-AML and TF(v-SRC) bearing mice was calculated by subtracting the […] divided by the median day of death of the AML-bearing vehicle treated mice. In order to determine the efficacy of the 3-Cl-AHPC and compound 16, survival distribution of the 3-Cl-AHPC or compound 16-treated (T) or vehicle (C) groups were compared using the log-rank test. Survival was characterized as the duration of the animal's life span 24 h after the initiation of the xenograft until an observed event (euthanasia or death). A p-value of less than 5% (p<0.05) was considered statistically significant.
The ability of compound 16 to inhibit the growth of TF(v-SRC) cells in SCID mice was determined. SCID mice were injected with 10 million TF(v-SRC) cells. The mice were treated intravenously with compound 16 (20 mg/kg) or vehicle every other day for a total of 15 doses. […] TF(v-SRC) growth in the SCID mice was documented by flow cytometry.

TF(v-SRC) tumors = assay: Test F: inhibition of growth of palpable TF(v-SRC) tumors; type: in vivo, SCID mice; conditions: palpable tumors of 100 mg
Protocol: as §1, with “Groups were treated either intravenously or subcutaneously at a distant site from the tumor with 20 mg/kg of compound 16 on a Monday, Wednesday and Friday schedule for 12 injections (4 weeks). Control mice were treated intravenously with vehicle.” left out
Non-obese diabetic-severe combined immunodeficiency (NOD-SCID) and ICR-SCID mice were obtained from Jackson Laboratories (Bar Harbor, Me.) and Taconic Farms (Germantown, N.Y.), respectively. […] Animals with equal tumor weights determined as described previously (Zhang Y. et al., Blood. 2002; 100:2917-2925) were assigned to three experimental arms: 1) control (vehicle treated), 2) subcutaneously treated with compound 16, and 3) intravenously treated with compound 16. […]

SMILES	mortality [1]	induction of apoptosis (AsPc-1 cells)	clinical signs of toxicity (TF(v-SRC) cells)	length of survival (TF(v-SRC) cells)	malignant cells by flow cytometry (lymph node/tumor specimens) (TF(v-SRC) cells)	treated mice with no evidence of leukemia (TF(v-SRC) cells)	weight loss compared to vehicle-treated mice (TF(v-SRC) cells)	reduction in TF(v-SRC) growth (TF(v-SRC) tumors; 20 mg/kg intravenously every other day)	reduction in TF(v-SRC) growth (TF(v-SRC) tumors; 20 mg/kg subcutaneously at a remote site every other day)
O=C(O)C=Cc1ccc(-c2ccc(O)c(C34CC5CC(CC(C5)C3)C4)c2)c(Cl)c1 [Compound 3-Cl-AHPC, 4-[3-(1-adamantyl)-4-hydroxyphenyl]-3-chlorocinnamic acid, reference compound]	One of the mice in the group treated with 3-Cl-AHPC died 48 hours after the final injection	Apoptosis was also noted	–	–	–	–	–	–	–
O=C(O)/C=C/c1cnc(-c2ccc(O)c(C34CC5CC(CC(C5)C3)C4)c2)nc1 [Compound 16, (E)-3-[2-(3-(1-Adamantyl)-4-hydroxyphenyl)-5-pyrimidinyl]-2-propenoic acid]	–	Apoptosis was also noted	did not display any evidence of diarrhea, dehydration, scruffy coat, or decreased physical activity	marked increase in the length of survival	No malignant cells were identified	87%	did not display any evidence of weight loss	55%	55%
